We go through 13 molecules from PubChem BioAssay (NCI).

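Five concentrations, 48 hours, 96-well plates. TGI denotes the concentration required for complete inhibition of growth.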

Test systems include HL-60(TB) leukemia; NCI-H460 lung; HOP-62 NSCLC; OVCAR-8 ovarian; SNB-75 CNS; OVCAR-3 ovarian; SNB-19 CNS; SK-MEL-2 melanoma; NCI-H226 lung; OVCAR-4 ovarian; HCT-116 colon; PC-3 prostate.
Holding throughout (experiment): growth of human tumour cells (NCI), 48 h

In the case of `CC(=O)NNc1nc(C)c(C(=O)/C=C/c2ccc(Cl)c(Cl)c2)s1`, the TGI with HL-60(TB) leukemia, with NCI-H460 lung, with HOP-62 NSCLC, in the assay on OVCAR-8 ovarian, with SNB-75 CNS and in the assay on OVCAR-3 ovarian was more than 100 µM each time. The TGI with SNB-19 CNS and in the assay on SK-MEL-2 melanoma was more than 100 µM each time.

`CCOC(=O)C1SC(=Nc2ccc(Cl)cc2Cl)N=C1C` (stereo not given): the TGI is more than 100 µM in the assay on NCI-H226 lung; more than 100 µM with HL-60(TB) leukemia; more than 100 µM in the assay with NCI-H460 lung; more than 100 µM with HOP-62 NSCLC; more than 100 µM with OVCAR-8 ovarian; 82 µM in the assay with SNB-75 CNS. In addition, the TGI with OVCAR-3 ovarian was more than 100 µM; with OVCAR-4 ovarian it was 70.1 µM; in the assay with HCT-116 colon it was more than 100 µM; with SNB-19 CNS, more than 100 µM; with SK-MEL-2 melanoma, more than 100 µM.

On to `O=C(O)CCN(CCCN(CCC(=O)O)CCC(=O)O)CCC(=O)O`, for which the TGI in the assay with HL-60(TB) leukemia, with NCI-H460 lung, in the assay on HOP-62 NSCLC, in the assay on OVCAR-8 ovarian, in the assay on SNB-75 CNS and with OVCAR-3 ovarian was more than 100 µM each time. Further, the TGI in the assay on OVCAR-4 ovarian, in the assay with HCT-116 colon and in the assay with SK-MEL-2 melanoma was more than 100 µM in each case.

As to `COc1ccc2c(c1)[n+]([O-])c(/C(C)=N/NC(=O)c1ccccc1O)c(C)[n+]2[O-]`, the TGI in the assay with NCI-H226 lung, with HL-60(TB) leukemia, with NCI-H460 lung, in the assay with HOP-62 NSCLC, in the assay with OVCAR-8 ovarian and in the assay with OVCAR-3 ovarian was more than 100 µM each time. The TGI with OVCAR-4 ovarian, with HCT-116 colon, with SNB-19 CNS and in the assay on SK-MEL-2 melanoma was more than 100 µM each time.

Turning to `COc1cc(CNc2cnc3ccc(N)cc3n2)cc(OC)c1OC`, the TGI with NCI-H226 lung, in the assay with HL-60(TB) leukemia, with NCI-H460 lung, in the assay with HOP-62 NSCLC, in the assay on OVCAR-8 ovarian and with SNB-75 CNS was more than 100 µM each time. Moreover, the TGI with OVCAR-3 ovarian, in the assay with OVCAR-4 ovarian, in the assay with HCT-116 colon, in the assay with SNB-19 CNS and in the assay with SK-MEL-2 melanoma was more than 100 µM throughout.

Take `COc1ccccc1NC(=O)CC(=O)N1N=C(c2ccccc2)C(N=Nc2ccc(Cl)cc2)C1=O` (stereo not given): the TGI with NCI-H226 lung was more than 100 µM; in the assay with HL-60(TB) leukemia, more than 100 µM; with NCI-H460 lung, more than 100 µM; in the assay on HOP-62 NSCLC, 48.6 µM; in the assay with OVCAR-8 ovarian it was more than 100 µM; with SNB-75 CNS, 55 µM. In addition, the TGI in the assay on OVCAR-3 ovarian is 74.3 µM; in the assay with OVCAR-4 ovarian, 56.6 µM; in the assay on HCT-116 colon it was more than 100 µM; in the assay with SNB-19 CNS, more than 100 µM; in the assay with SK-MEL-2 melanoma, more than 100 µM.

In the case of `C=CCCCC1(C)CCNC1=S` (stereo not given), the TGI in the assay with NCI-H460 lung, in the assay on HOP-62 NSCLC, with OVCAR-8 ovarian, in the assay on PC-3 prostate, in the assay on SNB-75 CNS and with OVCAR-3 ovarian was more than 100 µM each time. Moreover, the TGI with OVCAR-4 ovarian, in the assay on HCT-116 colon, in the assay with SNB-19 CNS and in the assay on SK-MEL-2 melanoma was more than 100 µM each time.

Take `NC(CCCCNCc1ccccc1)C(=O)O` (stereo not given): the TGI in the assay on NCI-H226 lung, with HL-60(TB) leukemia, in the assay on NCI-H460 lung, in the assay on HOP-62 NSCLC, with OVCAR-8 ovarian and with SNB-75 CNS was more than 100 µM each time. Moreover, the TGI with OVCAR-3 ovarian, in the assay on OVCAR-4 ovarian, in the assay on HCT-116 colon, in the assay on SNB-19 CNS and in the assay with SK-MEL-2 melanoma was more than 100 µM in each case.

In the case of `CC(C)OP(=O)(OC(C)C)C(=NCCN=C(NNc1ccccc1[N+](=O)[O-])P(=O)(OC(C)C)OC(C)C)NNc1ccccc1[N+](=O)[O-]`, the TGI in the assay on NCI-H226 lung was 67.4 µM; in the assay on HL-60(TB) leukemia, 74.5 µM; with HOP-62 NSCLC, more than 100 µM; with OVCAR-8 ovarian, more than 100 µM; in the assay with SNB-75 CNS, more than 100 µM; in the assay on OVCAR-3 ovarian it was more than 100 µM. Further, the TGI in the assay on OVCAR-4 ovarian was more than 100 µM; in the assay with HCT-116 colon, more than 100 µM; with SNB-19 CNS it was more than 100 µM; in the assay on SK-MEL-2 melanoma, 40 µM.

Take `CN(C)C(=NC#N)N(Cc1ccccc1)Cc1ccccc1`: the TGI with NCI-H226 lung is more than 100 µM; in the assay on HL-60(TB) leukemia, more than 100 µM; in the assay with NCI-H460 lung, 34 µM; in the assay with HOP-62 NSCLC, more than 100 µM; with OVCAR-8 ovarian, more than 100 µM; with SNB-75 CNS, more than 100 µM. Moreover, the TGI in the assay on OVCAR-3 ovarian, in the assay with OVCAR-4 ovarian, with HCT-116 colon, with SNB-19 CNS and in the assay with SK-MEL-2 melanoma was more than 100 µM in each case.

For the molecule `O=S(=O)(c1cc(Cl)ccc1Cl)N1CCN(c2cccc(Cl)c2)CC1`, the TGI in the assay with NCI-H226 lung, with HL-60(TB) leukemia, in the assay on NCI-H460 lung, in the assay with HOP-62 NSCLC, in the assay on OVCAR-8 ovarian and with PC-3 prostate was more than 100 µM throughout. Further, the TGI in the assay with SNB-75 CNS, with OVCAR-3 ovarian, in the assay on OVCAR-4 ovarian, with HCT-116 colon and with SNB-19 CNS was more than 100 µM in each case.

Consider `CC1=N[C@@](C)(C2CC3C=CC2C3=O)COC1=O` (stereo not given in full), for which the TGI in the assay with NCI-H226 lung, with HL-60(TB) leukemia, in the assay on NCI-H460 lung, in the assay with HOP-62 NSCLC, with OVCAR-8 ovarian and in the assay on PC-3 prostate was more than 100 µM each time. In addition, the TGI in the assay on SNB-75 CNS, with OVCAR-3 ovarian, in the assay on OVCAR-4 ovarian, in the assay on HCT-116 colon and with SNB-19 CNS was more than 100 µM each time.

As for `O=c1[nH]c2c(c(=O)[nH]1)C(c1ccc([N+](=O)[O-])cc1)c1c([nH]c(=O)[nH]c1=O)O2`, the TGI in the assay on NCI-H226 lung, in the assay with HL-60(TB) leukemia, in the assay on NCI-H460 lung, in the assay on HOP-62 NSCLC, in the assay on OVCAR-8 ovarian and with PC-3 prostate was more than 100 µM in each case. The TGI with OVCAR-3 ovarian, in the assay on OVCAR-4 ovarian, in the assay on HCT-116 colon, in the assay with SNB-19 CNS and with SK-MEL-2 melanoma was more than 100 µM in each case.
